Experimental data: US9888689B2, “Compositions containing a pyripyropene insecticide and an adjuvant” (BASF SE, priority 2010, dated 2018)

Legend:
[1] = Stability of crystalline hydrate forms of compound of formula I; assay type: physicochemical
From the text: As pointed out above, a further aspect of the present invention relates to the hydrate B of the compound of formula I. Form B is a non-stoichiometric hydrate of the compound of formula I. The typical water content is in the range from 7.5 to 9 wt % and in particular about 8.5 wt %, i.e. 8.5±0.2 wt %. The water content can be determined by thermo-gravimetric analysis (TGA).

[2] = test system: larvae of Helicoverpa zea; details: cited from earlier work
[3] = test system: Plutella xylostella L larvae; details: cited from earlier work
[4] = test system: Tenebrio molitor L; details: cited from earlier work

C[C@]1(COC(=O)C2CC2)[C@@H]2C[C@H](O)[C@@]3(C)Oc4cc(-c5cccnc5)oc(=O)c4[C@H](O)[C@@H]3[C@@]2(C)CC[C@@H]1OC(=O)C1CC1 [Form B]
conversion of the hydrate form ([1]; dried at elevated temperatures, e.g. >50 °C): slowly converts into amorphous material
stability of the hydrate form ([1]; room temperature, in contact with aqueous solvent or water or at high degrees of humidity, e.g. 90%): stable
conversion of the hydrate form ([1]; when the mother liquor is removed or humidity is reduced): slowly converts into form C

CC(=O)OC[C@@]1(C)[C@@H]2C[C@H](OC(C)=O)[C@@]3(C)Oc4cc(-c5cccnc5)oc(=O)c4[C@H](O)[C@@H]3[C@@]2(C)CC[C@@H]1OC(C)=O [Pyripyropene A]
insecticidal activity [2]: insecticidal activity
insecticidal activity [3]: insecticidal activity
insecticidal activity [4]: insecticidal activity

C[C@]1(COC(=O)C2CC2)[C@@H]2C[C@H](O)[C@@]3(C)Oc4cc(-c5cccnc5)oc(=O)c4[C@H](O)[C@@H]3[C@@]2(C)CC[C@@H]1OC(=O)C1CC1 [Form C]
stability of the hydrate form ([1]; ambient conditions): stable at ambient conditions over weeks and month
